Source: US5804603A, “Synthesized β-adrenergic blockers derivatives of guaiacol” (National Science Council, priority 1995, dated 1998)
Read-outs that look alike come from different tables or passages of the source. Values belong to the molecule of their own block, whether it stands above or below them.

Experiments:
[1] = test system: heart rate and blood pressure; assay: Heart rate and blood pressure changes of rats induced by guaiacoxypropanolamines; format: in vivo; conditions: 1.0 mg/kg iv, means ± SE (n = 8)
[2] = biological target: T1, Isolated Guinea Pig Atria (Cavia porcellus, UniProt H0W3H1); assay: pA2 on isolated guinea pig atria; format: cell-based; conditions: for Potency ratio (PR), positive chronotropic / Potency ratio (PR), positive inotropic: with respect to propranolol
T1 construct: Isolated Guinea Pig Atria; from tissue; host or cells: guinea pig atria (isolated organ)
Excerpt: The determination of the pA2 is made from experiments in which a fixed concentration of the antagonist is used along with graded concentrations of an agonist acting on the same receptor. The presence of the antagonist shifts the agonist dose-response curve to the right.

[3] = isolated guinea pig atria, read-out: pA2, positive chronotropic (converted)
[4] = isolated guinea pig atria, read-out: pA2, positive inotropic (converted)

T1 sequence (H0W3H1 1-470): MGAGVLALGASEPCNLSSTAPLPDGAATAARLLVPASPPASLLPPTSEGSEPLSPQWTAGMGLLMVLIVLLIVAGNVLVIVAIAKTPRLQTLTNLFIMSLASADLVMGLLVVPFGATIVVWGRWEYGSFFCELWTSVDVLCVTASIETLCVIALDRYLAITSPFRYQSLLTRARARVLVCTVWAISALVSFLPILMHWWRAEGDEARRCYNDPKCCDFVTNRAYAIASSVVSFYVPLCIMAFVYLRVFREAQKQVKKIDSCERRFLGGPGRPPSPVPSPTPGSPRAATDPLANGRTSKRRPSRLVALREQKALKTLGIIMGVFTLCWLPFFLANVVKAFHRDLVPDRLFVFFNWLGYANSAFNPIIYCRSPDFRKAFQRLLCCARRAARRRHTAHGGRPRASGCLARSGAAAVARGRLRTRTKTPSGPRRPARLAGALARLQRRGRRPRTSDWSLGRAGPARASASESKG

Structure (SMILES): CCCCCCCCC(=O)NCc1ccc(OCC(O)CNC2CC2)c(OC)c1 (stereo not shown) [NH-c-C3 H5, N-[4-o-(2-hydroxy-3-(cyclopropylamino)propoxy)-3-methoxybenzyl]-nonamide]
- change in BP ([1]; 5 min after dosing): -0.11 ± 1.09 mmHg
- change in HR ([1]; 5 min after dosing): -47.67 ± 8.88 beats/min
- change in BP ([1]; 10 min after dosing): 3.11 ± 2.78 mmHg
- change in HR ([1]; 10 min after dosing): -38.89 ± 9.47 beats/min
- change in BP ([1]; 15 min after dosing): 3.89 ± 2.92 mmHg
- change in HR ([1]; 15 min after dosing): -23.67 ± 10.01 beats/min
- change in BP ([1]; 30 min after dosing): 3.67 ± 4.10 mmHg
- change in HR ([1]; 30 min after dosing): -11.89 ± 8.73 beats/min
- change in BP ([1]; 60 min after dosing): 2.22 ± 2.32 mmHg
- change in HR ([1]; 60 min after dosing): -2.67 ± 4.14 beats/min

Structure (SMILES): CCCCCCCCC(=O)NCc1ccc(OCC(O)CNC2CCCCC2)c(OC)c1 (stereo not shown) [NH-c-C6 H11, N-[4-o-(2-hydroxy-3-(cyclohexylamino)propoxy)-3-methoxybenzyl]-nonamide]
- change in BP ([1]; 5 min after dosing): -4.11 ± 2.89 mmHg
- change in HR ([1]; 5 min after dosing): -32.33 ± 15.44 beats/min
- change in BP ([1]; 10 min after dosing): -4.22 ± 2.29 mmHg
- change in HR ([1]; 10 min after dosing): -28.44 ± 16.54 beats/min
- change in BP ([1]; 15 min after dosing): -3.67 ± 2.39 mmHg
- change in HR ([1]; 15 min after dosing): -11.67 ± 9.26 beats/min
- change in BP ([1]; 30 min after dosing): 1.33 ± 2.69 mmHg
- change in HR ([1]; 30 min after dosing): -1.78 ± 8.96 beats/min
- change in BP ([1]; 60 min after dosing): 0.67 ± 2.45 mmHg
- change in HR ([1]; 60 min after dosing): 2.78 ± 9.64 beats/min

Structure (SMILES): CCCCCCCCC(=O)NCc1ccc(OCC(O)CNC(C)C)c(OC)c1 (stereo not shown) [NH-i-C3 H7, N-[4-o-(2-hydroxy-3-(isopropylamino)propoxy)-3-methoxybenzyl]-nonamide]
- Kb [2, 3]: 17 nM
- Kb [2, 4]: 8.51 nM
- Potency ratio (PR), positive chronotropic [2]: 0.45
- Potency ratio (PR), positive inotropic [2]: 0.45
- change in BP ([1]; 5 min after dosing): -0.44 ± 2.05 mmHg
- change in HR ([1]; 5 min after dosing): -50.22 ± 7.29 beats/min
- change in BP ([1]; 10 min after dosing): -1.22 ± 2.29 mmHg
- change in HR ([1]; 10 min after dosing): -40.78 ± 7.64 beats/min
- change in BP ([1]; 15 min after dosing): -2.89 ± 2.03 mmHg
- change in HR ([1]; 15 min after dosing): -35.44 ± 7.32 beats/min
- change in BP ([1]; 30 min after dosing): -6.67 ± 2.51 mmHg
- change in HR ([1]; 30 min after dosing): -32.67 ± 9.24 beats/min
- change in BP ([1]; 60 min after dosing): -1.33 ± 0.98 mmHg
- change in HR ([1]; 60 min after dosing): -20.00 ± 6.15 beats/min

Now from value to molecule, other results behind:

- Kb [2, 3]: 117 nM
- Kb [2, 4]: 26.9 nM
- Potency ratio (PR), positive chronotropic [2]: 0.06
- Potency ratio (PR), positive inotropic [2]: 0.14
Structure (SMILES): CCCCCCCCC(=O)NCc1ccc(OCC(O)CNCC(C)C)c(OC)c1 (stereo not shown) [NH-i-C4 H9, N-[4-o-(2-hydroxy-3-(iso-butylamino)propoxy)-3-methoxybenzyl]-nonamide]
- change in BP ([1]; 5 min after dosing): -2.75 ± 2.29 mmHg
- change in HR ([1]; 5 min after dosing): -39.88 ± 8.60 beats/min
- change in BP ([1]; 10 min after dosing): 1.63 ± 2.07 mmHg
- change in HR ([1]; 10 min after dosing): -35.25 ± 7.98 beats/min
- change in BP ([1]; 15 min after dosing): 1.63 ± 1.71 mmHg
- change in HR ([1]; 15 min after dosing): -27.13 ± 7.76 beats/min
- change in BP ([1]; 30 min after dosing): 2.00 ± 1.86 mmHg
- change in HR ([1]; 30 min after dosing): 4.13 ± 8.20 beats/min
- change in BP ([1]; 60 min after dosing): 0.25 ± 1.91 mmHg
- change in HR ([1]; 60 min after dosing): 3.13 ± 7.90 beats/min

- pA2, positive chronotropic ([2]; isolated guinea pig atria): 6.79 ± 0.01
- pA2, positive inotropic ([2]; isolated guinea pig atria): 7.75 ± 0.07
- Potency ratio (PR), positive chronotropic [2]: 0.05
- Potency ratio (PR), positive inotropic [2]: 0.21
Structure (SMILES): CCCCCCCCC(=O)NCc1ccc(OCC(O)CNCCC)c(OC)c1 (stereo not shown) [NH-n-C3 H7, N-[4-o-(2-hydroxy-3-(n-propylamino)propoxy)-3-methoxybenzyl]-nonamide]
- change in BP ([1]; 5 min after dosing): -1.78 ± 1.71 mmHg
- change in HR ([1]; 5 min after dosing): -42.56 ± 7.65 beats/min
- change in BP ([1]; 10 min after dosing): -2.56 ± 1.47 mmHg
- change in HR ([1]; 10 min after dosing): -35.33 ± 6.05 beats/min
- change in BP ([1]; 15 min after dosing): -3.11 ± 1.81 mmHg
- change in HR ([1]; 15 min after dosing): -32.00 ± 5.25 beats/min
- change in BP ([1]; 30 min after dosing): -2.44 ± 1.66 mmHg
- change in HR ([1]; 30 min after dosing): -14.11 ± 5.16 beats/min
- change in BP ([1]; 60 min after dosing): -0.56 ± 0.50 mmHg
- change in HR ([1]; 60 min after dosing): -6.89 ± 4.32 beats/min

- Kb [2, 3]: 58.9 nM
- Kb [2, 4]: 53.7 nM
- Potency ratio (PR), positive chronotropic [2]: 0.13
- Potency ratio (PR), positive inotropic [2]: 0.07
Structure (SMILES): CCCCCCCCC(=O)NCc1ccc(OCC(O)CNCCCC)c(OC)c1 (stereo not shown) [NH-n-C4 H9, N-[4-o-(2-hydroxy-3-(n-butylamino)propoxy)-3-methoxybenzyl]-nonamide]
- change in BP ([1]; 5 min after dosing): -0.22 ± 1.74 mmHg
- change in HR ([1]; 5 min after dosing): -40.00 ± 3.74 beats/min
- change in BP ([1]; 10 min after dosing): -1.22 ± 1.59 mmHg
- change in HR ([1]; 10 min after dosing): -33.78 ± 5.08 beats/min
- change in BP ([1]; 15 min after dosing): -1.22 ± 1.77 mmHg
- change in HR ([1]; 15 min after dosing): -26.22 ± 6.56 beats/min
- change in BP ([1]; 30 min after dosing): 0.11 ± 1.54 mmHg
- change in HR ([1]; 30 min after dosing): -15.33 ± 5.24 beats/min
- change in BP ([1]; 60 min after dosing): 3.33 ± 2.82 mmHg
- change in HR ([1]; 60 min after dosing): -3.67 ± 2.55 beats/min
